Assay results taken from ChEMBL document CHEMBL1201862, “PubChem BioAssay data set” (2004).
The source made the active and inactive calls.

Tests used:
[1] = glucagon-like peptide-1 release potency in STC-1, concentration-response, half-maximal inhibitory concentration in the STC-1 line (AID 1117345); type: functional, cell-based
[2] = Potency on glucagon-like peptide 1 release, dose-response in NCI-H716 cell line, half maximal inhibitory concentration (AID 1117344); type: functional, cell-based
[3] = target: Heat shock protein HSP 90-alpha (Homo sapiens, UniProt P07900); assay: Luminescence-based dose response biochemical high throughput screening assay for inhibitors of the Heat Shock Protein 90 (HSP90). [Related pubchem assays: 1831 (Summary AID.), 1846 (Confirmation screen.), 1789 (Primary screen.)]
[4] = cytotoxicity toward HT-29 cells – cell-based, CellTiter-Glo luminescence, IC50, dose response (AID 1117330); type: functional
[5] = cytotoxicity toward Colo320 cells – cell-based, CellTiter-Glo luminescence, IC50, dose response (AID 1117334); type: functional; conditions: COLO 320
[6] = cytotoxicity toward HCT116 cells – cell-based, CellTiter-Glo luminescence, IC50, dose response (AID 1117332); type: functional; conditions: HCT-116
[7] = RKO cell viability reduction, dose response, CellTiter-Glo luminescence (AID 1117322); type: functional
[8] = HCT116 cell viability decrease, GSK3B pretreatment – CellTiter-Glo, IC50, dose response (AID 1117339); type: functional; conditions: HCT-116
[9] = SNU-C1 cell viability reduction, dose response, CellTiter-Glo luminescence (AID 1117323); type: functional, cell-based
[10] = Reduced DLD-1 viability, concentration-response, CellTiter-Glo luminescence (AID 1117352); type: functional
[11] = CellTiter-Glo luminescence survival assay, SW480 colon tumor line, concentration-response curve, half-maximal inhibitory concentration (AID 1117338); type: functional
[12] = target: Peroxisome proliferator-activated receptor gamma/Nuclear receptor corepressor 2 (Homo sapiens, UniProt P37231+Q9Y618); assay: Counterscreen for NR2E3 inverse agonists: TR-FRET-based biochemical high throughput dose response assay to identify inverse agonists of the interaction between peroxisome proliferator-activated receptor gamma (PPARg) and nuclear receptor co-repressor 2 (NCOR2).; type: functional
Chain of Peroxisome proliferator-activated receptor gamma/Nuclear receptor corepressor 2 (P37231 whole entry): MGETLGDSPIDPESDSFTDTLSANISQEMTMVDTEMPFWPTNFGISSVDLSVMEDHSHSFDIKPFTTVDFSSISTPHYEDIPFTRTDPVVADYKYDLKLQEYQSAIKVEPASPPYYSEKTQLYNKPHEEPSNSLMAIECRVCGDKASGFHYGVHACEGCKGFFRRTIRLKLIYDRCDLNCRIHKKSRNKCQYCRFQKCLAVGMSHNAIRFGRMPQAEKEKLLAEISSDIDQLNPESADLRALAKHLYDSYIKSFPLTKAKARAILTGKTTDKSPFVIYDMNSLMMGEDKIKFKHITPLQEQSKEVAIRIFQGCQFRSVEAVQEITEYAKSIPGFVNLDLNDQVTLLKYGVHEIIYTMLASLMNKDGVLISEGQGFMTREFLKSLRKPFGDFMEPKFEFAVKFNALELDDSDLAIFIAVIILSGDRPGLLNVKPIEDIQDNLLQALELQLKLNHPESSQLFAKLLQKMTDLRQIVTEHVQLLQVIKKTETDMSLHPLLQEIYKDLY
Chain of Peroxisome proliferator-activated receptor gamma/Nuclear receptor corepressor 2 (Q9Y618 whole entry): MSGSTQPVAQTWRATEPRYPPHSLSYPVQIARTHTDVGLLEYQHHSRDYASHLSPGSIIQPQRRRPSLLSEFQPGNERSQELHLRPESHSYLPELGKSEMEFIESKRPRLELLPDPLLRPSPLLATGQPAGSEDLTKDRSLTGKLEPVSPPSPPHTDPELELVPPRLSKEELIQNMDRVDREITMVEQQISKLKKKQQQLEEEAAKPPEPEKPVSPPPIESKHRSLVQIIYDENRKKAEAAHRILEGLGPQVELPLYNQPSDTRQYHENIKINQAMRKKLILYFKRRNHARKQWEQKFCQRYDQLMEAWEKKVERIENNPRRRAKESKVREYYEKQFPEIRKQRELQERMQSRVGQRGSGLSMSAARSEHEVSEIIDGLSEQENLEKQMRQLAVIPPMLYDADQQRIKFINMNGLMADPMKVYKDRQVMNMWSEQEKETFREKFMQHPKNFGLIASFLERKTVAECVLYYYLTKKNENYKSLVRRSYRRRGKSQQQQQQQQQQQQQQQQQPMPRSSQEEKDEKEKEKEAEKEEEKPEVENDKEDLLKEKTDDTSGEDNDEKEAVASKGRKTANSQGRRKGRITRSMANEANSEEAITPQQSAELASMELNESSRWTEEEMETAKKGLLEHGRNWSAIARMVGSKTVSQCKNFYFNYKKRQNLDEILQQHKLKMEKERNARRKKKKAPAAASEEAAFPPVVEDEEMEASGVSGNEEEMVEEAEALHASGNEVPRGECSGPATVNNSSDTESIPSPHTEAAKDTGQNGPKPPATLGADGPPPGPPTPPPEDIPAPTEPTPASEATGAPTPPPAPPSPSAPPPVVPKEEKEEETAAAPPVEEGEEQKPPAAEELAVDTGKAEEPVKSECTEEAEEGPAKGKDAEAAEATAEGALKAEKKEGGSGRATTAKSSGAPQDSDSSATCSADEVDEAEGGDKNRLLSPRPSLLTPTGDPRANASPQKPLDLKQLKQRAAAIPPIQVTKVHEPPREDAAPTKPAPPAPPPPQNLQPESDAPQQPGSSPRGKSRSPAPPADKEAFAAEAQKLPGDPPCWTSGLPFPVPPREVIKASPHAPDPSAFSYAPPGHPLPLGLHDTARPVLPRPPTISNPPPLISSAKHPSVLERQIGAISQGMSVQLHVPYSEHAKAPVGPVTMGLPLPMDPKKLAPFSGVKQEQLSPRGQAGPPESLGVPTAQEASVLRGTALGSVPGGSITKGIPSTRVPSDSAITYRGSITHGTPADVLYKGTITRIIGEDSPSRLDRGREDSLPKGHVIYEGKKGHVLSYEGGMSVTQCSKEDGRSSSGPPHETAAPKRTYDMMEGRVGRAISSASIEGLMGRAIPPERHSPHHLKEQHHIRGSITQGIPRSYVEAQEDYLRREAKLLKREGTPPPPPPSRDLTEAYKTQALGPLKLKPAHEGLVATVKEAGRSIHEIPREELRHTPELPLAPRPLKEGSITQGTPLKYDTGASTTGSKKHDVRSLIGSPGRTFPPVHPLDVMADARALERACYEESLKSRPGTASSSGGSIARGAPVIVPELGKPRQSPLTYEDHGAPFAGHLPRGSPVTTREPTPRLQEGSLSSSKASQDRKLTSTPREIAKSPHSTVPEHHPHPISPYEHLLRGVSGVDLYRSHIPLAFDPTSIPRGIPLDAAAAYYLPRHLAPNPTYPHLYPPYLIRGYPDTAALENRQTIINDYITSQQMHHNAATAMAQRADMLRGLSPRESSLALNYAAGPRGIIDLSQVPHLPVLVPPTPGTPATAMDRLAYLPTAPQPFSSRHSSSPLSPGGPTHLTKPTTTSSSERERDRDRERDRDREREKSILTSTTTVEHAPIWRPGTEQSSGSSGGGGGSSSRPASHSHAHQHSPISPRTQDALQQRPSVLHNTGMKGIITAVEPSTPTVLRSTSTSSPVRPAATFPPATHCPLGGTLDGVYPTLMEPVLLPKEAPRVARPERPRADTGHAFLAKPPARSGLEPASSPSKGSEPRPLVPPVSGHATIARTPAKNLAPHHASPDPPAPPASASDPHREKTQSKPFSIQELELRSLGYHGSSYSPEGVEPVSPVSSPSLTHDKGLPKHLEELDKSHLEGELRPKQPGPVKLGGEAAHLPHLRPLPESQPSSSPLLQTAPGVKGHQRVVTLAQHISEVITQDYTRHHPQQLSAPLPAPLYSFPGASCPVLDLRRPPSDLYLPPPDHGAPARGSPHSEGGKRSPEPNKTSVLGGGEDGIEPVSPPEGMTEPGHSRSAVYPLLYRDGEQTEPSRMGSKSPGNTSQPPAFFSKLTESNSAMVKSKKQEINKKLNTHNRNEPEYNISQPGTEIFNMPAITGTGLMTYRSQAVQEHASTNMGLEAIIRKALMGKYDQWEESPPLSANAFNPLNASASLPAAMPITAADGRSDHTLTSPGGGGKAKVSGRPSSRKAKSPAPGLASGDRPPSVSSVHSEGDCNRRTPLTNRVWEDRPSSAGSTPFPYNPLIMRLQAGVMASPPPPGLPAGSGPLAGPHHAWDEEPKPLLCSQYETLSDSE

[13] = target: Photoreceptor-specific nuclear receptor (Homo sapiens, UniProt Q9Y5X4); assay: ligands suppressing NR2E3 nuclear receptor activity – biochemical, TR-FRET, dose response (AID 463256); type: functional
Chain of Photoreceptor-specific nuclear receptor (Q9Y5X4 whole entry): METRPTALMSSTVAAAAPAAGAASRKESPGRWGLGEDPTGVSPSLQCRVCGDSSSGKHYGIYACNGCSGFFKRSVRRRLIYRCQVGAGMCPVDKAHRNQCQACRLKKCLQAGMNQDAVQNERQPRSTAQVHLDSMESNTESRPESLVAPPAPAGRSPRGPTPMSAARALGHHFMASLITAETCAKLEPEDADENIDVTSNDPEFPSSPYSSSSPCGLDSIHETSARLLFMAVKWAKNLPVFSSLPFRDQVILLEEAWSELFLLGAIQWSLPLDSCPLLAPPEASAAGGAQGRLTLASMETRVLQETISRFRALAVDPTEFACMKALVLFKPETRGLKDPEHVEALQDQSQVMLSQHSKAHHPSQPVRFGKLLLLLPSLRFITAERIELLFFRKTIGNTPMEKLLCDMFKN

[14] = toxicity to human hepatoma HepG2 cells – cell-based, cherry-picked samples, cytotoxicity control, dose response (AID 1159577); type: functional
[15] = toxicity to human HepG2 hepatoma cells – cell-based, plate reader, dry powder samples, cytotoxicity control, dose response (AID 1159569); type: functional;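 note: inhibitor potency with signal falling toward the positive control level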
[16] = Plasmodium falciparum Dd2 Sybr green parasite growth Measured in Cell-Based and Microorganism Combination System Using Plate Reader - 2153-01_Inhibitor_Dose_DryPowder_Activity_Set3.; type: functional
[17] = P. falciparum Dd2 growth inhibitors, dose response, SYBR Green, cherry-picked samples (AID 1159567); type: functional, cell-based
[18] = Dd2 parasite growth inhibition in erythrocytes – SYBR Green, dry powder samples, set 9, dose response (AID 1159568); type: functional, cell-based
[19] = growth inhibition of yeast DHODH-expressing 3D7 parasites – SYBR Green, dry powder samples, dose response (AID 1159570); type: functional, cell-based;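 note: parasite growth measured after 72 hours of compound exposure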
[20] = growth inhibition of PfATP4-mutant resistant parasites – NITD609-resistant line, SYBR Green, dry powder, dose response (AID 1159571); type: functional, cell-based;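 note: parasites synchronized at ring stage by sorbitol before testing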
[21] = Dd2 malaria parasite growth inhibition potency – SYBR Green, dry powder samples, dose response (AID 1159566); type: functional, cell-based;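 note: potency for growth inhibition with lower SYBR green DNA signal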
[22] = loss of A549 viability via ATP – cell-based, plate reader, dry powder, set 7, cytotoxicity control, dose response (AID 743318); type: functional
BJ [23] = assay: BJ-TERT-LT-ST fibroblast viability loss – cell-based, RAS-independent, luminescence, dose response (AID 1935); type: functional; conditions: Homo sapiens;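 note: BJ fibroblasts immortalized with TERT plus LT and ST oncogenes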
BJ [24] = assay: BJ-TERT fibroblast viability loss – cell-based, RAS-independent, luminescence, dose response (AID 1933); type: functional; conditions: Homo sapiens
BJ [25] = assay: cells; type: functional, cell-based; conditions: Homo sapiens
BJ [26] = assay: growth inhibition of engineered Ras-driven BJ cells – cell-based, alamar blue fluorescence, cherrypicked samples, dose response (AID 2631); type: functional; conditions: Homo sapiens;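 note: confirmatory dose-response assay in RAS-dependent BJ fibroblasts engineered with TERT, LT and ST, with cytotoxicity read by fluorescence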
[27] = DRD fibroblast viability loss – cell-based, non-viral oncogenic, luminescence, dose response (AID 1934); type: functional; conditions: Homo sapiens
[28] = Luminescent dose response cell-based high throughput screening assay for inhibitors of the Janus kinase 2 mutant JAK2V617F. [Related pubchem assays: 1446 (Primary screen.), 1521 (Confirmation assay.), 1486 (Counter screen.)]; type: functional
[29] = ATP-based viability loss in HeLa cells – cell-based, CellTiter-Glo luminescence, dry powder, set 2, cytotoxicity control, dose response (AID 720593); type: functional
[30] = ATP-based viability loss in HEK293T cells – cell-based, CellTiter-Glo luminescence, dry powder, set 2, cytotoxicity control, dose response (AID 720595); type: functional; conditions: HEK293
[31] = target: Aryl hydrocarbon receptor (Homo sapiens, UniProt P35869); assay: Luminescence-based cell-based high throughput dose response assay for activators of the Aryl Hydrocarbon Receptor (AHR). [Related pubchem assays: 2796 (Primary screen (AHR activators in singlicate)), 2845 (Confirmation screen (AHR activators in triplicate)), 434939 (Counterscreen (PXR activators in triplicate)), 2804 (Summary (AHR activators))]; type: ADME
Chain of Aryl hydrocarbon receptor (P35869 whole entry): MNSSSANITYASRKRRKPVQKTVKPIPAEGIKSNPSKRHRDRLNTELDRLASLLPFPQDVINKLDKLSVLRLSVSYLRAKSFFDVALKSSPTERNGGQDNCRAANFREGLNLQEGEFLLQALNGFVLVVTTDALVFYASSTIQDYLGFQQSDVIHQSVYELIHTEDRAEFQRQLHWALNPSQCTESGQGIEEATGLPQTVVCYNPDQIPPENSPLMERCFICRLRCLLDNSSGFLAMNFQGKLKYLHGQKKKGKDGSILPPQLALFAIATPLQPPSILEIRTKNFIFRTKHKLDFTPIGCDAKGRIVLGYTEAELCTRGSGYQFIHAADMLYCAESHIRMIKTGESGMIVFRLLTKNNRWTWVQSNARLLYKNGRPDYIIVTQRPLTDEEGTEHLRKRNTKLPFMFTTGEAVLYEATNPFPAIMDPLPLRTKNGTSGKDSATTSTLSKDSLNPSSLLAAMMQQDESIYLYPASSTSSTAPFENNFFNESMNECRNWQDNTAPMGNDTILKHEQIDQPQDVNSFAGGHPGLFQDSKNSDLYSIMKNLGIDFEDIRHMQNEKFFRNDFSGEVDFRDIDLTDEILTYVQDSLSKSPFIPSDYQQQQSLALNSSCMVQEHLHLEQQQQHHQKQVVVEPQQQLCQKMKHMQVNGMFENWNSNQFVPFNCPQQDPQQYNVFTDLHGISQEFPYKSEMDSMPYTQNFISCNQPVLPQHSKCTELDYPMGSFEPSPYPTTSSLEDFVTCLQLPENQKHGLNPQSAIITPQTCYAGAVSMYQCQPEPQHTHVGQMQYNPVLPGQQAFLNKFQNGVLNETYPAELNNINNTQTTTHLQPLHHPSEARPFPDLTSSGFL

[32] = viability inhibitors of stage V gametocytes – luminescence, dose response (AID 1117278); type: functional, cell-based;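 note: gametocytes exposed to compound for 24 hours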
[33] = viability loss in human Jurkat cells – cell-based, luminescence, cytotoxicity control for P. falciparum gametocyte viability project, dose response (AID 1117277); type: functional;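 note: potency reflects loss of cellular ATP meaning fewer viable cells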
[34] = IC50 of insulin release inhibition, rat insulinoma INS-1E line, 5 mM glucose, cell-based (AID 1117331); type: functional
cells = type: functional, cell-based; conditions: INS-1E
[35] = target: T1, Mannose-6-phosphate isomerase (Homo sapiens, UniProt P34949); assay: phosphomannose isomerase inhibition – biochemical, fluorescence intensity, confirmation (AID 1535)
T1 sequence (P34949 whole entry): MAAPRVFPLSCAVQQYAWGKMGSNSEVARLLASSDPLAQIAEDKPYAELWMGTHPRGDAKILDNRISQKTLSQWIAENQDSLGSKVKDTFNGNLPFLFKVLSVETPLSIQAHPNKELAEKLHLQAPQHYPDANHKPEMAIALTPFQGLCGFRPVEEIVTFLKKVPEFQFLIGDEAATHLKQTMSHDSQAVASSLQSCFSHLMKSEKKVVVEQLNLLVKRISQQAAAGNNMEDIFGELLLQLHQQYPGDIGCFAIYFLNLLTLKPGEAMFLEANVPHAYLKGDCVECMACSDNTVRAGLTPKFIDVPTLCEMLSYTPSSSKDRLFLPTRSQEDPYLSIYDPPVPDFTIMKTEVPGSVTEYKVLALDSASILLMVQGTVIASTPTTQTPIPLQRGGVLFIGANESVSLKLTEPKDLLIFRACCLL

[36] = target: Peroxisome proliferator-activated receptor gamma/Nuclear receptor coactivator 1 (Homo sapiens, UniProt P37231); assay: TR-FRET dose response biochemical High Throughput Screening assay for agonists of the steroid receptor coactivator 1 (SRC-1) recruitment by the peroxisome proliferator-activated receptor gamma (PPAR gamma): non-selective agonists. [Related pubchem assays (depositor defined):AID1300, AID1808, AID504735, AID631]; type: protein assay
[37] = target: Mitogen-activated protein kinase 10 (Homo sapiens, UniProt P53779); assay: Dose response biochemical screening assay for inhibitors of c-Jun N-Terminal Kinase 3 (JNK3). [Related pubchem assays: 746 ]
Chain of Mitogen-activated protein kinase 10 (P53779 whole entry): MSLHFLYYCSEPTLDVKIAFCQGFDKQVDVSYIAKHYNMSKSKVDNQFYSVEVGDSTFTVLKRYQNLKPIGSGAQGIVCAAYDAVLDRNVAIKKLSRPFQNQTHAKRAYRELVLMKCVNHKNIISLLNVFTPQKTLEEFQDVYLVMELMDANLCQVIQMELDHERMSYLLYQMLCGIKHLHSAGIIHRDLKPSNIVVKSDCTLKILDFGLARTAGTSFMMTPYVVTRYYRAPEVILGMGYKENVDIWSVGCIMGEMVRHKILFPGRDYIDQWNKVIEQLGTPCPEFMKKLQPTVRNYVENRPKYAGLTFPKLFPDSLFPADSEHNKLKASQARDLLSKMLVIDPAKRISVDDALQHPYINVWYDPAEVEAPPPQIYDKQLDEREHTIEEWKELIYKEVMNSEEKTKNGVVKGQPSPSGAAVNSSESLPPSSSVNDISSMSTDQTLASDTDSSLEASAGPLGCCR

Phosphomannomutase 2 = Phosphomannomutase 2 (Homo sapiens, UniProt O15305); assay: Counter screen SAR assay for PMM2 inhibitors via a fluorescence intensity assay. [Related pubchem assays (depositor defined):AID1545, AID1574]
Chain of Phosphomannomutase 2 (O15305 whole entry): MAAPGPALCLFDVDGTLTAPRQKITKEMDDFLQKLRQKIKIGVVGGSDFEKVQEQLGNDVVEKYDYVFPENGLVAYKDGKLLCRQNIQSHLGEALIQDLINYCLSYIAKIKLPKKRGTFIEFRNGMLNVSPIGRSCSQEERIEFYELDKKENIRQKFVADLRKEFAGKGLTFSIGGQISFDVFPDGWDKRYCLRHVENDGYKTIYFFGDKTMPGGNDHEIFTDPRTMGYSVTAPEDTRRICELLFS

[38] = target: Peroxisome proliferator-activated receptor gamma/Nuclear receptor coactivator 3 (Homo sapiens, UniProt P37231); assay: TR-FRET dose response biochemical High Throughput Screening assay for agonists of the steroid receptor coactivator 3 (SRC-3) recruitment by the peroxisome proliferator-activated receptor gamma (PPAR gamma): non-selective agonists. [Related pubchem assays: 1301 (Confirmation screen.), 1048 (Primary screen.)]; type: functional
[39] = target: Peroxisome proliferator-activated receptor gamma/Nuclear receptor coactivator 2 (Homo sapiens, UniProt P37231); assay: TR-FRET dose response biochemical High Throughput Screening assay for agonists of the steroid receptor coactivator 2 (SRC-2) recruitment by the peroxisome proliferator-activated receptor gamma (PPAR gamma): non-selective agonists. [Related pubchem assays: 1297, 1032 ]; type: functional
Danio rerio = assay: In Vivo Angiogenesis Dose-Response Confirmation. [Related pubchem assays: 732 (Assay preceding this confirmatory assay.)]; type: functional, organism-based
[40] = target: T2, Low molecular weight phosphotyrosine protein phosphatase (Homo sapiens, UniProt P24666); type: functional; conditions: read-out: IC50_Mean;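 note: Dose-response confirmation assay measuring inhibition of LMPTP enzyme activity by fluorescence intensity read-out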
T2 sequence (P24666 whole entry): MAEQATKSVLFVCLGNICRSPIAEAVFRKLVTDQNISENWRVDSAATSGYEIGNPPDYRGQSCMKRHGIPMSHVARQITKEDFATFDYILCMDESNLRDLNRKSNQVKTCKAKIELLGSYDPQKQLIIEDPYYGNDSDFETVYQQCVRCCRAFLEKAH

[41] = IC50 of Artemis nuclease activity blockers – biochemical, fluorescence intensity, dose response (AID 720701); type: functional;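 note: Artemis endonuclease enzyme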

## CN(C)[C@@H]1C(O)=C(C(=O)NCN2CCCC2)C(=O)[C@@]2(O)C(O)=C3C(=O)c4c(O)cccc4[C@@](C)(O)C3C[C@@H]12 (some centres undefined)
[1]
  IC50: > 40 µM (inactive)
[2]
  IC50: > 40 µM (inactive)

## COC(=O)c1ccc(NC(=O)c2ccc(C)cc2)o1
[3]
  IC50: > 60 µM (not active)

## CNC(=O)Oc1cccc2ccccc12 [CARBARIL]
[4]
  IC50: > 20 µM (inactive)
[5]
  IC50: > 20 µM (inactive)
[6]
  IC50: > 20 µM (inactive)
[7]
  IC50: > 20 µM (inactive)
[8]
  IC50: > 20 µM (inactive)
[9]
  IC50: > 20 µM (inactive)
[10]
  IC50: > 20 µM (inactive)
[11]
  IC50: > 20 µM (inactive)

## Cc1cc(C)c2c(C)c(C(=O)NCc3ccc(S(N)(=O)=O)cc3)oc2c1
[12]
  IC50: 3.99 µM (active)
[13]
  IC50: 4.06 µM (active)

## CCCNC(=O)N1[C@H](C#N)[C@H](c2ccc(C#Cc3ccc(F)cc3)cc2)[C@@H]1CO
[14]
  AC50: > 39 µM (inactive)
[15]
  AC50: 41.4 µM (active)
[16]
  AC50: 0.15 µM (active)
[17]
  AC50: < 0.3 µM (active)
[18]
  AC50: 0.0575 µM (active)
[19]
  AC50: 3.48 µM (active)
[20]
  AC50: 0.101 µM (active)
[21]
  AC50: 0.123 µM (active)

## Cc1ccc(C(C)C)c(OCCn2c(=S)[nH]c3cccc(F)c32)c1
[22]
  AC50: 30.2 µM (active)

## CCOc1ccc(Nc2nc(N)nc(CCl)n2)cc1
BJ [23]
  EC50: 10.8 µM (inconclusive)
BJ [24]
  EC50: 0.839 µM (inconclusive)
BJ [25]
  EC50: 1.8 µM (active)
BJ [26]
  EC50: 5.73 µM (active)
[27]
  EC50: 0.694 µM (active)
[28]
  IC50: 0.597 µM (active)

## CCCCC(=O)NC(c1ccco1)c1ccc2cccnc2c1O (centres undefined)
[29]
  AC50: 28.4 µM (active)
[30]
  AC50: 3.78 µM (active)

## CCOCC(=O)Nc1cccc(-c2nc3cccnc3s2)c1C
[31]
  EC50: 4.22 µM (active)

## O=C(O)c1ccc(-c2ccccc2)nc1O
[32]
  IC50: > 109 µM (inactive)
[33]
  IC50: > 83.2 µM (inactive)

## CC(C)(Cc1c[nH]c2ccccc12)NCC(O)COc1ccccc1C#N (centres undefined) [BUCINDOLOL]
[34]
  IC50: 15 µM (inactive)
cells
  IC50: > 33.3 µM (inactive)

## Sc1nnc(-c2cccc(Br)c2)o1
[35]
  IC50: > 50 µM (inactive)
[36]
  EC50: 7.33 µM (active)
[37]
  IC50: > 93.1 µM (not active)
Phosphomannomutase 2
  IC50: > 100 µM (inactive)
[38]
  EC50: > 79.4 µM (not active)
[39]
  EC50: 3.25 µM (active)

## O=C1C(c2c(O)[nH]c3ccc(F)cc23)=Nc2ccccc21
Danio rerio
  IC50: 2.17 µM (active)

## O=C(Cc1cn2ccsc2n1)Nc1nc2c(s1)CN(Cc1ccccc1)CC2
[40]
  IC50: 44.6 µM (inactive)
[41]
  IC50: > 20 µM (inactive)
